Assay results published in patent US20020165130A1, “Method of sensitizing microbial cells to antimicrobial compounds” (priority 1998, published 2002).
“Also recorded” adds a separate entry of the source. Where two headings read alike, the source gives them in different places.

Columns and labels:
Format in all cases: cell-based
[1] = tested on: zygosaccharomyces bailii ATCC 60483; assay: Flow cytometry, uptake of ethidium bromide by Z. bailii; conditions: 0.5 mM sesquiterpenoid, 15 μM ethidium bromide, 40 minutes
Protocol: (§1) Erwinia sp. #351 was from Presque Isle Cultures, Presque Isle, Pa. Lactobacillus fermentum ATCC 14931, zygosaccharomyces bailii ATCC 60483 and E. coli ATCC 25922 (National Committee on Clinical Laboratory Standards antibiotic test strain) were from the American Type Culture Collection, Manassas, Va. Staphylococcus aureus ATCC 6538 and Enterococcus faecalis Bact. 4025 were obtained from the UW-Madison Department of Bacteriology culture collection. All bacteria except for L. fermentum were grown statically in screwcap tubes containing 10 ml Trypticase Soy Broth (BBL, Cockeysville, Md.) for 20-22 hours at 30° C. L. fermentum was grown statically in screwcap tubes containing 10 ml MRS broth (Difco) for 20-22 hours at 30° C. Cultures of Z. bailii were grown in 125 ml culture flasks containing 50 ml YM broth (Difco) on a rotary shaker set at 200 rpm for 20-22 hours at 25° C. For experiments involving flow cytometry, overnight cultures of Erwinia sp., L. fermentum and Z. bailli were set to a concentration of ca. 10^7 cfu/ml in 67 mM phosphate buffer, pH 7.0 (filtered, 0.2 μm). For the examination of sesquiterpenoids, cell suspensions containing either 0.5% ethanol and 15 μM ethidium bromide or 0.5 mM apritone, bisabolol, nerolidol or farnesol dissolved in ethanol (0.5% ethanol, final concentration) and 15 μM ethidium bromide were incubated for 40 minutes at room temperature. After incubation, cell suspensions were diluted 1:10 in 67 mM phosphate buffer, pH 7.0 (filtered, 0.2 μm) and examined using a FACScan flow cytometer (Becton Dickinson and Company, Cockeysville, Md.). Data were collected in logarithmic mode on forward scatter, side scatter and fluorescence characteristics of the cells.

[2] = tested on: Lactobacillus fermentum ATCC 14931; assay: Flow cytometry, uptake of ethidium bromide by L. fermentum; conditions: 0.5 mM sesquiterpenoid, 15 μM ethidium bromide, 40 minutes
Protocol: as §1

[3] = tested on: Staphylococcus aureus ATCC 6538; assay: Antibiotic disc assay (zones of inhibition), S. aureus; conditions: for sensitization to six different antibiotics: disc diffusion, 0.5-2 mM sesquiterpenoid; for zone size, ciprofloxacin 5 μg disc: terpenoid at 0.5 mM in agar overlay
Protocol: (§2) Erwinia sp. #351 was from Presque Isle Cultures, Presque Isle, Pa. Lactobacillus fermentum ATCC 14931, zygosaccharomyces bailii ATCC 60483 and E. coli ATCC 25922 (National Committee on Clinical Laboratory Standards antibiotic test strain) were from the American Type Culture Collection, Manassas, Va. Staphylococcus aureus ATCC 6538 and Enterococcus faecalis Bact. 4025 were obtained from the UW-Madison Department of Bacteriology culture collection. All bacteria except for L. fermentum were grown statically in screwcap tubes containing 10 ml Trypticase Soy Broth (BBL, Cockeysville, Md.) for 20-22 hours at 30° C. L. fermentum was grown statically in screwcap tubes containing 10 ml MRS broth (Difco) for 20-22 hours at 30° C. Cultures of Z. bailii were grown in 125 ml culture flasks containing 50 ml YM broth (Difco) on a rotary shaker set at 200 rpm for 20-22 hours at 25° C.
(§3) The activity of terpenoid compounds toward facilitating susceptibility to antibiotics was assessed using an antibiotic disc assay. For this assay, cells from an overnight growth were suspended to a known concentration in 0.5 ml 67 mM phosphate buffer, pH 7.0 and mixed with 4.5 ml 0.7% Iso-Sensitest agar (Oxoid, Basingstoke, Hampshire, England) overlay tempered to 50° C. Terpenoid compounds dissolved in absolute ethanol were added to the cell/agar overlay mixture yielding final concentrations of 0.5, 1.0 or 2.0 mM, depending on the experiment. The final concentration of ethanol in cell overlays was 0.5% and the final concentration of target cells was ca. 10^6 cfu/ml. After thorough vortexing, terpenoid-containing cell overlays were poured over hardened Iso-Sensitest agar (2% agar) plates and allowed to set. […] After incubation, zones of inhibition were measured with a ruler from the bottom of the plates.

[4] = tested on: Enterococcus faecalis Bact. 4025; conditions: E. faecalis; for degree of sensitization to antibiotics: disc diffusion
Protocol: as §2, §3

[5] = antibiotic disc with 0.5 mM apritone (A) in agar overlay
[6] = antibiotic disc with 0.5 mM bisabolol (B) in agar overlay
[7] = antibiotic disc with 0.5 mM nerolidol (N) in agar overlay
[8] = antibiotic disc with 1 mM apritone (A) in agar overlay
[9] = antibiotic disc with 1 mM bisabolol (B) in agar overlay
[10] = antibiotic disc with 1 mM nerolidol (N) in agar overlay
[11] = antibiotic disc with 2 mM apritone (A) in agar overlay
[12] = antibiotic disc with 2 mM bisabolol (B) in agar overlay
[13] = antibiotic disc with 2 mM nerolidol (N) in agar overlay
[14] = antibiotic disc, control (no sesquiterpenoid in agar overlay)
[15] = antibiotic disc, control (no sesquiterpenoid)

CC(C)=CCC/C(C)=C/CC1CCCC1=O (stereo not drawn) [apritone]
uptake of ethidium bromide (fluorescence, chromosomal staining) [1]: greatest degree of chromosomal staining; also recorded: became more fluorescent | uptake of ethidium bromide (ethidium-conferred fluorescence) [2]: facilitated the uptake of ethidium bromide | ability to sensitize S. aureus to ciprofloxacin ([3]; 0.5 mM terpenoid, ciprofloxacin 5 μg disc): least effective | sensitization to six different antibiotics [3]: readily sensitized | zone size, ciprofloxacin 5 μg disc ([3]; ciprofloxacin 5 μg disc): 24 mm | degree of sensitization to antibiotics ([4]; 1 mM sesquiterpenoid): only a modest degree of sensitization

CC(C)=CCC[C@](C)(O)C1CC=C(C)CC1 (stereo partly drawn) [bisabolol]
uptake of ethidium bromide (fluorescence, chromosomal staining) [1]: became more fluorescent | uptake of ethidium bromide (ethidium-conferred fluorescence) [2]: facilitated the uptake of ethidium bromide | sensitization to six different antibiotics [3]: readily sensitized | zone size, ciprofloxacin 5 μg disc ([3]; ciprofloxacin 5 μg disc): 25 mm | zones smaller than control plates by ([4]; clindamycin 2 μg disc, 1 mM sesquiterpenoid): 1 mm | degree of sensitization to antibiotics ([4]; 1 mM sesquiterpenoid): only a modest degree of sensitization

C=C1C2CCC(C2)C1(C)C (stereo not drawn) [camphene]
zone size, ciprofloxacin 5 μg disc ([3]; ciprofloxacin 5 μg disc): 22 mm

CC12CCC(CC1)C(C)(C)O2 [cineole]
zone size, ciprofloxacin 5 μg disc ([3]; ciprofloxacin 5 μg disc): 23 mm

CC(C)=CCCC(C)=CC=O [citral]
zone size, ciprofloxacin 5 μg disc ([3]; ciprofloxacin 5 μg disc): 22 mm

CC(C)=CCCC(C)CC=O (stereo not drawn) [citronellal]
zone size, ciprofloxacin 5 μg disc ([3]; ciprofloxacin 5 μg disc): 22 mm

CC(C)=CCCC(C)CCO (stereo not drawn) [citronellol]
zone size, ciprofloxacin 5 μg disc ([3]; ciprofloxacin 5 μg disc): 22.5 mm

CCC[C@@H]1C[C@@H](C(=O)N[C@@H]([C@H]2O[C@H](SC)[C@H](O)[C@@H](O)[C@H]2O)[C@H](C)Cl)N(C)C1 [clindamycin]
Diameters of zones of inhibition [3, 5]: 22 millimeters | Diameters of zones of inhibition [3, 6]: 24.5 millimeters | Diameters of zones of inhibition [3, 7]: 23.5 millimeters | Diameters of zones of inhibition [3, 8]: 25 millimeters | Diameters of zones of inhibition [3, 9]: 27 millimeters | Diameters of zones of inhibition [3, 10]: 31.5 millimeters | Diameters of zones of inhibition [3, 11]: 27.5 millimeters | Diameters of zones of inhibition [3, 12]: 32 millimeters | Diameters of zones of inhibition [3, 13]: 35.5 millimeters | Diameters of zones of inhibition [3, 14]: 22 millimeters | Diameters of zones of inhibition [4, 8]: 12 millimeters | Diameters of zones of inhibition [4, 9]: 11 millimeters | Diameters of zones of inhibition [4, 10]: 11 millimeters | Diameters of zones of inhibition [4, 15]: 12 millimeters

CC[C@H]1OC(=O)[C@H](C)[C@@H](O[C@H]2C[C@@](C)(OC)[C@@H](O)[C@H](C)O2)[C@H](C)[C@@H](O[C@@H]2O[C@H](C)C[C@H](N(C)C)[C@H]2O)[C@](C)(O)C[C@@H](C)C(=O)[C@H](C)[C@@H](O)[C@]1(C)O [erythromycin]
Diameters of zones of inhibition [3, 5]: 26 millimeters | Diameters of zones of inhibition [3, 6]: 26 millimeters | Diameters of zones of inhibition [3, 7]: 27 millimeters | Diameters of zones of inhibition [3, 8]: 25 millimeters | Diameters of zones of inhibition [3, 9]: 29 millimeters | Diameters of zones of inhibition [3, 10]: 29.5 millimeters | Diameters of zones of inhibition [3, 11]: 26.5 millimeters | Diameters of zones of inhibition [3, 12]: 30 millimeters | Diameters of zones of inhibition [3, 13]: 33 millimeters | Diameters of zones of inhibition [3, 14]: 24 millimeters | Diameters of zones of inhibition [4, 8]: 18 millimeters | Diameters of zones of inhibition [4, 9]: 19 millimeters | Diameters of zones of inhibition [4, 10]: 19.5 millimeters | Diameters of zones of inhibition [4, 15]: 18.5 millimeters

CC(C)=CCCC(C)=CCCC(C)=CCO [farnesol]
uptake of ethidium bromide (fluorescence, chromosomal staining) [1]: became more fluorescent | uptake of ethidium bromide (ethidium-conferred fluorescence) [2]: facilitated the uptake of ethidium bromide | uptake of ethidium bromide (ethidium-conferred fluorescence) ([2]; listed as Farnesol): highest ethidium-conferred fluorescence peak | inhibitory by itself in disc assay overlay ([3]; all concentrations used (0.5, 1, 2 mM)): inhibitory | inhibitory by itself in disc assay overlay ([4]; 1 mM): inhibitory

CC(C)=CCC/C(C)=C/CO [geraniol]
zone size, ciprofloxacin 5 μg disc ([3]; ciprofloxacin 5 μg disc): 23 mm

C=C(C)[C@H]1CC=C(C)CC1 [limonene]
zone size, ciprofloxacin 5 μg disc ([3]; ciprofloxacin 5 μg disc): 22 mm

C=CC(C)(O)CCC=C(C)C (stereo not drawn) [linalool]
zone size, ciprofloxacin 5 μg disc ([3]; ciprofloxacin 5 μg disc): 22.5 mm

CC(C)[C@@H]1CC[C@@H](C)CC1=O [menthone]
zone size, ciprofloxacin 5 μg disc ([3]; ciprofloxacin 5 μg disc): 23 mm

C=CC(=C)CCC=C(C)C [myrcene]
zone size, ciprofloxacin 5 μg disc ([3]; ciprofloxacin 5 μg disc): 21.5 mm

CC(C)=CCC/C(C)=C\CO [nerol]
zone size, ciprofloxacin 5 μg disc ([3]; ciprofloxacin 5 μg disc): 22 mm

CN(C)[C@@H]1C(O)=C(C(N)=O)C(=O)[C@@]2(O)C(O)=C3C(=O)c4c(O)cccc4[C@@](C)(O)[C@H]3C[C@@H]12 [tetracycline]
Diameters of zones of inhibition [3, 5]: 25.5 millimeters | Diameters of zones of inhibition [3, 6]: 25 millimeters | Diameters of zones of inhibition [3, 7]: 25.5 millimeters | Diameters of zones of inhibition [3, 8]: 26 millimeters | Diameters of zones of inhibition [3, 9]: 26 millimeters | Diameters of zones of inhibition [3, 10]: 26.5 millimeters | Diameters of zones of inhibition [3, 11]: 27.5 millimeters | Diameters of zones of inhibition [3, 12]: 30 millimeters | Diameters of zones of inhibition [3, 13]: 32.5 millimeters | Diameters of zones of inhibition [3, 14]: 21.5 millimeters | Diameters of zones of inhibition [4, 8]: 22.5 millimeters | Diameters of zones of inhibition [4, 9]: 24 millimeters | Diameters of zones of inhibition [4, 10]: 23.5 millimeters | Diameters of zones of inhibition [4, 15]: 22 millimeters

CC(C)CCCC(C)CCO (stereo not drawn) [tetrahydrogeraniol]
zone size, ciprofloxacin 5 μg disc ([3]; ciprofloxacin 5 μg disc): 22.5 mm

CCC(C)(O)CCCC(C)C (stereo not drawn) [tetrahydrolinalool]
zone size, ciprofloxacin 5 μg disc ([3]; ciprofloxacin 5 μg disc): 23 mm

CN[C@H](CC(C)C)C(=O)N[C@H]1C(=O)N[C@@H](CC(N)=O)C(=O)N[C@H]2C(=O)N[C@H]3C(=O)N[C@H](C(=O)N[C@H](C(=O)O)c4cc(O)cc(O)c4-c4cc3ccc4O)[C@H](O)c3ccc(c(Cl)c3)Oc3cc2cc(c3O[C@@H]2O[C@H](CO)[C@@H](O)[C@H](O)[C@H]2O[C@H]2C[C@](C)(N)[C@H](O)[C@H](C)O2)Oc2ccc(cc2Cl)[C@H]1O [vancomycin]
Diameters of zones of inhibition [3, 5]: 19 millimeters | Diameters of zones of inhibition [3, 6]: 20 millimeters | Diameters of zones of inhibition [3, 7]: 20 millimeters | Diameters of zones of inhibition [3, 8]: 18 millimeters | Diameters of zones of inhibition [3, 9]: 19 millimeters | Diameters of zones of inhibition [3, 10]: 23.5 millimeters | Diameters of zones of inhibition [3, 11]: 20 millimeters | Diameters of zones of inhibition [3, 12]: 21 millimeters | Diameters of zones of inhibition [3, 13]: 25 millimeters | Diameters of zones of inhibition [3, 14]: 18 millimeters | Diameters of zones of inhibition [4, 8]: 17 millimeters | Diameters of zones of inhibition [4, 9]: 18 millimeters | Diameters of zones of inhibition [4, 10]: 18 millimeters | Diameters of zones of inhibition [4, 15]: 17 millimeters

CC1=CC=C(C(C)C)CC1 [α-terpinene]
zone size, ciprofloxacin 5 μg disc ([3]; ciprofloxacin 5 μg disc): 22 mm

gentamicin
Diameters of zones of inhibition [3, 5]: 20 millimeters | Diameters of zones of inhibition [3, 6]: 22 millimeters | Diameters of zones of inhibition [3, 7]: 24 millimeters | Diameters of zones of inhibition [3, 8]: 21 millimeters | Diameters of zones of inhibition [3, 10]: 26 millimeters | Diameters of zones of inhibition [3, 11]: 23 millimeters | Diameters of zones of inhibition [3, 12]: 29 millimeters | Diameters of zones of inhibition [3, 13]: 35 millimeters | Diameters of zones of inhibition [3, 14]: 18.5 millimeters | Diameters of zones of inhibition [4, 8]: 11 millimeters | Diameters of zones of inhibition [4, 10]: 17.5 millimeters | Diameters of zones of inhibition [4, 15]: 9 millimeters
